# Source: PubChem BioAssay AID330 (DTP/NCI, 2004)
# Values joined by “and” are separate entries in the source; they are usually repeats but may differ in a detail not shown here. Equal entries are not always repeated. Toxic doses and inconclusive results are not listed.
# Test system: P388 leukemia ip, CD2F1 mice, survival T/C
# Assay: NCI In Vivo Anticancer Drug Screen. Data for tumor model P388 Leukemia (intraperitoneal) in CD2F1 (CDF1) mice
# Details: endpoint: median survival time, higher = longer survival
# Outline: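 Mice carrying the transplanted tumor received test compound or vehicle. Survival was recorded in each group, and the value is the treated-group measurement divided by that of the vehicle-treated control group.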
# [1] = dose: 60.0 mg/kg/injection, schedule: Q01DX005 (ip), vehicle: saline with Tween-80
# [2] = dose: 120.0 mg/kg/injection, schedule: Q01DX005 (ip), vehicle: saline with Tween-80
# [3] = dose: 240.0 mg/kg/injection, schedule: Q01DX005 (ip), vehicle: saline with Tween-80
structure (smiles),measurement,setting,value
CC(C)=CC1OC2CC3(C)C4=C(CCC3(C)C2C(C)C1O)C1(C)CCC(O)C(C)(C)C1CC4 (configuration not stated),T/C,"dose: 15.0 mg/kg/injection, schedule: Q01DX009 (ip), vehicle: saline",98 % of control
same,T/C,"dose: 30.0 mg/kg/injection, schedule: Q01DX009 (ip), vehicle: saline",102 % of control
same,T/C,"dose: 60.0 mg/kg/injection, schedule: Q01DX009 (ip), vehicle: saline",100 % of control
COc1cccc2c1C(=O)c1c(O)c3c(c(O)c1C2=O)C[C@H](O)C[C@@H]3OC1CC(N)C(O)C(C)O1 (some centres not stated),T/C,"dose: 0.5 mg/kg/injection, schedule: Q04DX003 (ip), vehicle: saline",105 % of control
same,T/C,"dose: 1.0 mg/kg/injection, schedule: Q04DX003 (ip), vehicle: saline",114 % of control
same,T/C,"dose: 1.56 mg/kg/injection, schedule: Q01DX009 (ip), vehicle: water",155 % of control and 161 % of control
same,T/C,"dose: 2.0 mg/kg/injection, schedule: Q04DX003 (ip), vehicle: saline",107 % of control
same,T/C,"dose: 3.13 mg/kg/injection, schedule: Q01DX009 (ip), vehicle: water",174 % of control
same,T/C,"dose: 4.0 mg/kg/injection, schedule: Q04DX003 (ip), vehicle: saline",117 % of control
same,T/C,"dose: 4.7 mg/kg/injection, schedule: Q04DX003 (ip), vehicle: water",109 % of control
same,T/C,"dose: 6.25 mg/kg/injection, schedule: Q01DX009 (ip), vehicle: water",180 % of control and 209 % of control
same,T/C,"dose: 8.0 mg/kg/injection, schedule: Q04DX003 (ip), vehicle: saline",108 % of control
same,T/C,"dose: 12.5 mg/kg/injection, schedule: Q01DX009 (ip), vehicle: water",228 % of control and 236 % of control
same,T/C,"dose: 64.0 mg/kg/injection, schedule: Q04DX003 (ip), vehicle: saline",169 % of control
same,T/C,"dose: 75.0 mg/kg/injection, schedule: Q04DX003 (ip), vehicle: water",181 % of control
same,T/C,"dose: 113.0 mg/kg/injection, schedule: Q04DX003 (ip), vehicle: water",116 % of control
same,T/C,"dose: 128.0 mg/kg/injection, schedule: Q04DX003 (ip), vehicle: saline",100 % of control
COc1ccc(C2COc3cc(O)c(O)cc3C2)cc1 (configuration not stated),T/C,[1],97 % of control
same,T/C,[2],107 % of control
same,T/C,[3],97 % of control
CC(CCc1cccc2ccccc12)(C(=O)O)C(=O)O,T/C,"dose: 50.0 mg/kg/injection, schedule: Q01DX009 (ip), vehicle: saline sonified",90 % of control
same,T/C,"dose: 100.0 mg/kg/injection, schedule: Q01DX009 (ip), vehicle: saline sonified",100 % of control
same,T/C,"dose: 200.0 mg/kg/injection, schedule: Q01DX009 (ip), vehicle: saline sonified",90 % of control
N=CC1=C(O)CCOC1=O,T/C,"dose: 100.0 mg/kg/injection, schedule: Q01DX001 (ip), vehicle: saline",99 % of control
same,T/C,"dose: 200.0 mg/kg/injection, schedule: Q01DX001 (ip), vehicle: saline",99 % of control
same,T/C,"dose: 400.0 mg/kg/injection, schedule: Q01DX001 (ip), vehicle: saline",100 % of control
CC1=C[C@H]2[C@@]3(O)[C@H](C)[C@@H](OC(=O)c4ccccc4)[C@]4(OC(=O)c5ccccc5)[C@H]([C@@H]3C=C(COC(=O)c3ccccc3)C[C@]2(O)C1=O)C4(C)C,T/C,"dose: 20.0 micrograms/kg/injection, schedule: Q01DX009 (ip), vehicle: saline + alcohol",100 % of control
same,T/C,"dose: 40.0 micrograms/kg/injection, schedule: Q01DX009 (ip), vehicle: saline + alcohol",96 % of control
same,T/C,"dose: 80.0 micrograms/kg/injection, schedule: Q01DX009 (ip), vehicle: saline + alcohol",102 % of control
same,T/C,"dose: 160.0 micrograms/kg/injection, schedule: Q01DX009 (ip), vehicle: saline + alcohol",100 % of control
same,T/C,"dose: 320.0 micrograms/kg/injection, schedule: Q01DX009 (ip), vehicle: saline + alcohol",94 % of control
COc1cc(C2N3Cc4ccccc4CN2c2ccccc23)cc(OC)c1OC,T/C,"dose: 100.0 mg/kg/injection, schedule: Q01DX001 (ip), vehicle: Klucel (hydroxypropylcellulose) (HPC)",101 % of control
same,T/C,"dose: 200.0 mg/kg/injection, schedule: Q01DX001 (ip), vehicle: Klucel (hydroxypropylcellulose) (HPC)",99 % of control
same,T/C,"dose: 400.0 mg/kg/injection, schedule: Q01DX001 (ip), vehicle: Klucel (hydroxypropylcellulose) (HPC)",102 % of control
C=CCSc1nc2ccc(N3C(=O)C=CC3=O)cc2s1,T/C,"dose: 6.25 mg/kg/injection, schedule: Q01DX009 (ip), vehicle: Klucel (hydroxypropylcellulose) (HPC)",111 % of control
same,T/C,"dose: 12.5 mg/kg/injection, schedule: Q01DX009 (ip), vehicle: Klucel (hydroxypropylcellulose) (HPC)",104 % of control and 113 % of control
same,T/C,"dose: 25.0 mg/kg/injection, schedule: Q01DX009 (ip), vehicle: Klucel (hydroxypropylcellulose) (HPC)",108 % of control and 113 % of control
COc1cc2c(cc1C1CCCCCc3c1[nH]c1ccccc31)C1CCCCC1N2C (configuration not stated),T/C,"dose: 12.5 mg/kg/injection, schedule: Q01DX001 (ip), vehicle: distilled water + Tween-80",100 % of control
same,T/C,"dose: 25.0 mg/kg/injection, schedule: Q01DX001 (ip), vehicle: distilled water + Tween-80",100 % of control
same,T/C,"dose: 50.0 mg/kg/injection, schedule: Q01DX001 (ip), vehicle: distilled water + Tween-80",100 % of control
same,T/C,"dose: 100.0 mg/kg/injection, schedule: Q01DX001 (ip), vehicle: distilled water + Tween-80",95 % of control
same,T/C,"dose: 200.0 mg/kg/injection, schedule: Q01DX001 (ip), vehicle: distilled water + Tween-80",91 % of control
O=c1oc2ccccc2c2c1C(c1ccc3c(c1)OCO3)C=C(c1ccc3c(c1)OCO3)O2 (configuration not stated),T/C,"dose: 25.0 mg/kg/injection, schedule: Q01DX009 (ip), vehicle: water",94 % of control
same,T/C,"dose: 50.0 mg/kg/injection, schedule: Q01DX009 (ip), vehicle: water",94 % of control
same,T/C,"dose: 100.0 mg/kg/injection, schedule: Q01DX009 (ip), vehicle: water",94 % of control
same,T/C,"dose: 200.0 mg/kg/injection, schedule: Q01DX009 (ip), vehicle: water",92 % of control
CC(C)/[N+]([O-])=N\O,T/C,"dose: 3.0 mg/kg/injection, schedule: Q01DX005 (ip), vehicle: Klucel (hydroxypropylcellulose) (HPC)",101 % of control
same,T/C,"dose: 6.0 mg/kg/injection, schedule: Q01DX005 (ip), vehicle: Klucel (hydroxypropylcellulose) (HPC)",98 % of control
same,T/C,"dose: 12.0 mg/kg/injection, schedule: Q01DX005 (ip), vehicle: Klucel (hydroxypropylcellulose) (HPC)",100 % of control
same,T/C,"dose: 24.0 mg/kg/injection, schedule: Q01DX005 (ip), vehicle: Klucel (hydroxypropylcellulose) (HPC)",98 % of control
CCC[CH2][Sn]1([CH2]CCC)[O]C(=O)CCSCCC(=O)[O]1,T/C,"dose: 1.56 mg/kg/injection, schedule: Q01DX005 (ip), vehicle: saline with Tween-80",100 % of control and 106 % of control
same,T/C,"dose: 3.12 mg/kg/injection, schedule: Q01DX005 (ip), vehicle: saline with Tween-80",109 % of control and 115 % of control and 121 % of control
same,T/C,"dose: 6.25 mg/kg/injection, schedule: Q01DX005 (ip), vehicle: saline with Tween-80",107 % of control
COC(=O)C1CC2c3cc4c(cc3CCN2CC1C(=O)OC)OCO4 (configuration not stated),T/C,"dose: 0.63 mg/kg/injection, schedule: Q01DX009 (ip), vehicle: distilled water + Tween-80",101 % of control
same,T/C,"dose: 1.25 mg/kg/injection, schedule: Q01DX009 (ip), vehicle: distilled water + Tween-80",99 % of control
same,T/C,"dose: 2.5 mg/kg/injection, schedule: Q01DX009 (ip), vehicle: distilled water + Tween-80",106 % of control
same,T/C,"dose: 5.0 mg/kg/injection, schedule: Q01DX009 (ip), vehicle: distilled water + Tween-80",97 % of control
same,T/C,"dose: 10.0 mg/kg/injection, schedule: Q01DX009 (ip), vehicle: distilled water + Tween-80",108 % of control
same,T/C,"dose: 20.0 mg/kg/injection, schedule: Q01DX009 (ip), vehicle: distilled water + Tween-80",106 % of control
COC(=O)CCC(=O)CN1C(=O)c2ccccc2C1=O,T/C,[1],106 % of control
same,T/C,[2],111 % of control
same,T/C,[3],111 % of control
CN(C)CCCN=c1c2ccccc2n(O)c2cccc([N+](=O)[O-])c12,T/C,"dose: 1.56 mg/kg/injection, schedule: Q01DX009 (ip), vehicle: saline with Tween-80",123 % of control
same,T/C,"dose: 3.12 mg/kg/injection, schedule: Q01DX009 (ip), vehicle: saline",117 % of control
same,T/C,"dose: 12.5 mg/kg/injection, schedule: Q01DX009 (ip), vehicle: saline with Tween-80",104 % of control
Cc1nc2[nH]ncc2c(=O)n1-c1ccccc1,T/C,"dose: 50.0 mg/kg/injection, schedule: Q01DX005 (ip), vehicle: Klucel (hydroxypropylcellulose) (HPC)",97 % of control
same,T/C,"dose: 100.0 mg/kg/injection, schedule: Q01DX005 (ip), vehicle: Klucel (hydroxypropylcellulose) (HPC)",99 % of control
same,T/C,"dose: 200.0 mg/kg/injection, schedule: Q01DX005 (ip), vehicle: Klucel (hydroxypropylcellulose) (HPC)",100 % of control
CN=C(N)N/N=C(\C)c1ccc2c(c1)Cc1cc(Cl)ccc1-2,T/C,"dose: 12.5 mg/kg/injection, schedule: Q04DX002 (ip), vehicle: saline with Tween-80",112 % of control
same,T/C,"dose: 25.0 mg/kg/injection, schedule: Q04DX002 (ip), vehicle: saline with Tween-80",113 % of control and 118 % of control
same,T/C,"dose: 50.0 mg/kg/injection, schedule: Q04DX002 (ip), vehicle: saline with Tween-80",113 % of control and 118 % of control
same,T/C,"dose: 100.0 mg/kg/injection, schedule: Q04DX002 (ip), vehicle: saline with Tween-80",102 % of control
